Assay results from the Kinase Knowledgebase extract (Sharma et al. 2016).

target: CDK2 (human) (UniProt P24941); assay: Enzyme Assay

Row | Structure (SMILES) | IC50 [nM]
1 | O=C(c1ccc2cc(-c3csc(CS(=O)(=O)c4ccccc4)n3)c(=O)[nH]c2c1)N1CCOCC1 | < 1000
2 | CN(c1nc(-c2cc3ccc(C(=O)O)cc3[nH]c2=O)cs1)S(=O)(=O)c1ccccc1 | < 1000
3 | CCN(CC)CCOc1cc(-c2nc(-c3cc4ccccc4[nH]c3=O)cs2)ccn1 | < 1000
4 | O=c1[nH]c2cc(CNC3CCCC3)ccc2cc1-c1csc(-c2ccncc2)n1 | < 1000
5 | COc1ccc2cc(-c3csc(-c4ccnc(Cl)c4)n3)c(=O)[nH]c2c1 | < 1000
6 | CCN(CC)CCN(C)c1ncc2cc(-c3csc(-c4ccncc4)n3)c(=O)[nH]c2n1 | < 1000
7 | CC1CN(Cc2ccc3cc(-c4csc(-c5ccncc5)n4)c(=O)[nH]c3c2)CCN1 (stereo not given) | < 1000
8 | O=C(c1ccc2cc(-c3csc(CS(=O)(=O)c4ccccc4)n3)c(=O)[nH]c2c1)N1CCCCC1 | < 1000
9 | Nc1c(-c2csc(-c3ccncc3)n2)c(=O)[nH]c2ccccc12 | < 1000
10 | O=c1[nH]c2ccc(F)cc2cc1-c1csc(-c2ccncc2)n1 | < 1000
11 | O=c1[nH]c2cc(CN3CCCC(O)C3)ccc2cc1-c1csc(-c2ccncc2)n1 (stereo not given) | < 1000
12 | CC1CCCN(Cc2ccc3cc(-c4csc(-c5ccncc5)n4)c(=O)[nH]c3c2)C1 (stereo not given) | < 1000
13 | O=c1[nH]c2cc(CN3CCC(O)C3)ccc2cc1-c1csc(-c2ccncc2)n1 (stereo not given) | < 1000
14 | CCc1cc(-c2nc(-c3cc4cc(Cl)ccc4[nH]c3=O)cs2)ccn1 | < 1000
15 | O=c1[nH]c2cc(CN3CCCCC3)ccc2cc1-c1csc(-c2ccncc2)n1 | < 1000
16 | CCN(CC)CCN(C)Cc1ccc2cc(-c3csc(-c4ccncc4)n3)c(=O)[nH]c2c1 | < 1000
17 | CCN(CC)C(=O)c1cccc2[nH]c(=O)c(-c3csc(-c4ccncc4)n3)cc12 | < 1000
18 | C=CCN(c1nc(-c2cc3ccccc3[nH]c2=O)cs1)S(=O)(=O)c1ccccc1 | < 1000
19 | O=c1[nH]c2ccccc2c(O)c1-c1csc(-c2ccncc2)n1 | < 1000
20 | O=c1[nH]c2cc(CN3CCCC3)ccc2cc1-c1csc(-c2ccncc2)n1 | < 1000
21 | CCN(CC)Cc1ccc2cc(-c3csc(-c4ccncc4)n3)c(=O)[nH]c2c1 | < 1000
22 | O=c1[nH]c2cc(C(F)(F)F)ccc2cc1-c1csc(CS(=O)(=O)c2cccs2)n1 | < 1000
23 | O=c1[nH]c2cc(O)ccc2cc1-c1csc(CS(=O)(=O)c2ccccc2)n1 | < 1000
24 | O=c1[nH]c2cc(CN3CCC3)ccc2cc1-c1csc(-c2ccncc2)n1 | < 1000

Row | Structure (SMILES) | IC50 [nM]
25 | CN1CCN(C(=O)c2ccc3cc(-c4csc(N(C)S(=O)(=O)c5ccccc5)n4)c(=O)[nH]c3c2)CC1 | < 1000
26 | Nc1nc(-c2ccncc2)ncc1-c1nc(-c2cc3ccccc3[nH]c2=O)cs1 | < 1000
27 | CCN(CC)Cc1ccc2cc(-c3csc(CS(=O)(=O)c4ccccc4)n3)c(=O)[nH]c2c1 | < 1000
28 | O=c1[nH]c2ccccc2cc1-c1nc(-c2cccc([N+](=O)[O-])c2)cs1 | < 1000
29 | CC(C)[C@H]1CN(Cc2ccc3cc(-c4csc(CS(=O)(=O)c5ccccc5)n4)c(=O)[nH]c3c2)CCN1 | < 1000
30 | O=c1[nH]c2ccccc2cc1-c1csc(-c2ccnc(OCCN3CCCCC3)c2)n1 | < 1000
31 | CN(C)CCOc1ccc2cc(-c3csc(-c4ccncc4)n3)c(=O)[nH]c2c1 | < 1000
32 | Cc1onc(-c2ccccc2)c1-c1csc(-c2cc3ccccc3[nH]c2=O)n1 | < 1000
33 | CSc1ncc2cc(-c3csc(-c4ccncc4)n3)c(=O)[nH]c2n1 | < 1000
34 | O=c1[nH]c2cc(CO)ccc2cc1-c1csc(CS(=O)(=O)c2ccccc2)n1 | < 1000
35 | CCc1cc(-c2nc(-c3cc4ccccc4[nH]c3=O)cs2)ccn1 | < 1000
36 | O=c1[nH]c2cc(CN3CCCCC3)ccc2cc1-c1csc(CS(=O)(=O)c2ccccc2)n1 | < 1000
37 | CN1CCN(C(=O)c2ccc3cc(-c4csc(-c5ccncc5)n4)c(=O)[nH]c3c2)CC1 | < 1000
38 | CCN(CCN(C)C)Cc1ccc2cc(-c3csc(-c4ccncc4)n3)c(=O)[nH]c2c1 | < 1000
39 | O=c1[nH]c2ccccc2cc1-c1csc(CS(=O)(=O)c2ccccc2)n1 | < 1000
40 | CC(C)N(C)Cc1ccc2cc(-c3csc(-c4ccncc4)n3)c(=O)[nH]c2c1 | < 1000
41 | O=c1[nH]c2ccccc2cc1-c1csc(CS(=O)(=O)c2cccs2)n1 | < 1000
42 | O=c1[nH]c2ccccc2cc1-c1csc(-c2ccc(O)cc2)n1 | < 1000
43 | Nc1c(-c2csc(-c3ccncc3)n2)c(=O)[nH]c2ccc(Cl)cc12 | < 1000
44 | O=c1[nH]c2cc(C(F)(F)F)ccc2cc1-c1csc(-c2ccncc2)n1 | < 1000
45 | CCN(CC)C(=O)c1ccc2cc(-c3csc(N(C)S(=O)(=O)c4ccccc4)n3)c(=O)[nH]c2c1 | < 1000
46 | COc1ccc2cc(-c3csc(C(C)(C)S(=O)(=O)c4ccccc4)n3)c(=O)[nH]c2c1 | < 1000
47 | CC1CC(C)CN(Cc2ccc3cc(-c4csc(CS(=O)(=O)c5ccccc5)n4)c(=O)[nH]c3c2)C1 (stereo not given) | < 1000
48 | O=c1ccc(-c2nc(-c3cc4ccccc4[nH]c3=O)cs2)c[nH]1 | < 1000

Row | Structure (SMILES) | IC50 [nM]
49 | CN1CCN(Cc2ccc3cc(-c4csc(-c5ccncc5)n4)c(=O)[nH]c3c2)CC1 | < 1000
50 | CC1CN(Cc2ccc3cc(-c4csc(CS(=O)(=O)c5ccccc5)n4)c(=O)[nH]c3c2)CCN1 (stereo not given) | < 1000
51 | CC1CC(C)CN(Cc2ccc3cc(-c4csc(-c5ccncc5)n4)c(=O)[nH]c3c2)C1 (stereo not given) | < 1000
52 | O=c1[nH]c2ccccc2cc1-c1csc(-c2ccnc(N3CCCCC3)c2)n1 | < 1000
53 | COc1ccc(-c2nc(-c3cc4ccccc4[nH]c3=O)cs2)cn1 | < 1000
54 | O=c1[nH]c2ccccc2cc1-c1csc(-c2cccnc2)n1 | < 1000
55 | O=c1[nH]c2cc3c(cc2cc1-c1csc(-c2ccncc2)n1)OCO3 | < 1000
56 | CN1CCN(c2ccc3[nH]c(=O)c(-c4csc(-c5ccncc5)n4)c(N)c3c2)CC1 | < 1000
57 | CCNCCNc1ncc2cc(-c3csc(-c4ccncc4)n3)c(=O)[nH]c2n1 | < 1000
58 | COc1cc2[nH]c(=O)c(-c3csc(-c4ccncc4)n3)c(N)c2cc1OC | < 1000
59 | CC(C)(c1nc(-c2cc3ccccc3[nH]c2=O)cs1)S(=O)(=O)c1ccccc1 | < 1000
60 | O=C(c1ccc2cc(-c3csc(-c4ccncc4)n3)c(=O)[nH]c2c1)N1CCCCC1 | < 1000
61 | CC(C)NCc1ccc2cc(-c3csc(-c4ccncc4)n3)c(=O)[nH]c2c1 | < 1000
62 | O=c1[nH]c2cc(CN3CC=CCC3)ccc2cc1-c1csc(CS(=O)(=O)c2ccccc2)n1 | < 1000
63 | O=c1[nH]c2ccccc2cc1-c1csc(-c2ccnc(NCCCO)c2)n1 | < 1000
64 | CC1CN(Cc2ccc3cc(-c4csc(CS(=O)(=O)c5ccccc5)n4)c(=O)[nH]c3c2)CC(C)O1 (stereo not given) | < 1000
65 | O=c1[nH]c2cc(C(F)(F)F)ccc2cc1-c1csc(CS(=O)(=O)c2ccccc2)n1 | < 1000
66 | COC(=O)c1cccc2[nH]c(=O)c(-c3csc(-c4ccncc4)n3)cc12 | < 1000
67 | CN(c1nc(-c2cc3ccccc3[nH]c2=O)cs1)S(=O)(=O)c1cccc(F)c1 | < 1000
68 | CN1CCN(C(=O)c2ccc3cc(-c4csc(CS(=O)(=O)c5ccccc5)n4)c(=O)[nH]c3c2)CC1 | < 1000
69 | Nc1c(-c2csc(-c3ccncc3)n2)c(=O)[nH]c2ccc(N3CCCCC3)cc12 | < 1000
70 | COc1ccc2cc(-c3csc(CS(=O)(=O)c4ccccc4)n3)c(=O)[nH]c2c1 | < 1000
71 | CN1CCN(Cc2ccc3cc(-c4csc(CS(=O)(=O)c5ccccc5)n4)c(=O)[nH]c3c2)CC1 | < 1000
72 | O=c1[nH]c2cc(CO)ccc2cc1-c1csc(-c2ccncc2)n1 | < 1000

Row | Structure (SMILES) | IC50 [nM]
73 | CSc1nc2[nH]c(=O)c(-c3csc(-c4ccncc4)n3)cc2s1 | < 1000
74 | O=c1[nH]c2cc(CN3CCOCC3)ccc2cc1-c1csc(-c2ccncc2)n1 | < 1000
75 | O=c1[nH]c2cc(OCCN3CCOCC3)ccc2cc1-c1csc(-c2ccncc2)n1 | < 1000
76 | C[C@@H]1CN(Cc2ccc3cc(-c4csc(CS(=O)(=O)c5ccccc5)n4)c(=O)[nH]c3c2)C[C@H](C)N1 | < 1000
77 | CC1CCCN(Cc2ccc3cc(-c4csc(CS(=O)(=O)c5ccccc5)n4)c(=O)[nH]c3c2)C1 (stereo not given) | < 1000
78 | O=c1[nH]c2ccccc2cc1-c1csc(-c2cccc(Cl)c2Cl)n1 | < 1000
79 | O=c1[nH]c2ccccc2cc1-c1csc(C[S+]([O-])c2ccccc2)n1 (stereo not given) | < 1000
80 | O=c1[nH]c2cc(C(F)(F)F)ccc2cc1-c1csc(-c2ccc3c(c2)OCO3)n1 | < 1000
81 | O=c1[nH]c2ccccc2cc1-c1nc(-c2ccncc2)cs1 | < 1000
82 | O=c1[nH]c2cc(CN3CCC(O)CC3)ccc2cc1-c1csc(-c2ccncc2)n1 | < 1000
83 | CC(C)C(CO)NCc1ccc2cc(-c3csc(-c4ccncc4)n3)c(=O)[nH]c2c1 (stereo not given) | < 1000
84 | COC(=O)c1ccc2cc(-c3csc(N(C)S(=O)(=O)c4ccccc4)n3)c(=O)[nH]c2c1 | < 1000
85 | Nc1ccc(-c2nc(-c3cc4ccccc4[nH]c3=O)cs2)cc1 | < 1000
86 | O=c1[nH]c2ccccc2cc1-c1csc(CS(=O)(=O)c2ccccn2)n1 | < 1000
87 | CC1CN(Cc2ccc3cc(-c4csc(-c5ccncc5)n4)c(=O)[nH]c3c2)CC(C)O1 (stereo not given) | < 1000
88 | CN(c1nc(-c2cc3ccccc3[nH]c2=O)cs1)S(=O)(=O)c1ccccc1 | < 1000
89 | CC(C)NC[C@H]1CCCN1Cc1ccc2cc(-c3csc(CS(=O)(=O)c4ccccc4)n3)c(=O)[nH]c2c1 | < 1000
90 | CCN(CCN(C)C)C(=O)c1ccc2cc(-c3csc(-c4ccncc4)n3)c(=O)[nH]c2c1 | < 1000
91 | O=c1[nH]c2ccccc2cc1-c1csc(-c2ccncc2)n1 | < 1000
92 | CC(C)CNCc1ccc2cc(-c3csc(-c4ccncc4)n3)c(=O)[nH]c2c1 | < 1000
93 | O=c1[nH]c2ccccc2cc1-c1csc(-c2ccc(-c3csnn3)cc2)n1 | < 1000
94 | CN(c1nc(-c2cc3ccccc3[nH]c2=O)cs1)S(=O)(=O)c1ccc(Br)cc1 | < 1000
95 | CC(C)N(C)Cc1ccc2cc(-c3csc(CS(=O)(=O)c4ccccc4)n3)c(=O)[nH]c2c1 | < 1000
